Measurements reported in US8471004B2, “Bicyclic compounds” (Hoffman-La Roche Inc., priority 2009, dated 2013).

Molecular target: T1, human chemokine receptor 2 isoform B (Homo sapiens, UniProt P41597)
T1 construct: host or cells: CHOK1-CCR2B-A5 (CHO-K1)
T1 sequence (P41597 1-360 isoform P41597-2): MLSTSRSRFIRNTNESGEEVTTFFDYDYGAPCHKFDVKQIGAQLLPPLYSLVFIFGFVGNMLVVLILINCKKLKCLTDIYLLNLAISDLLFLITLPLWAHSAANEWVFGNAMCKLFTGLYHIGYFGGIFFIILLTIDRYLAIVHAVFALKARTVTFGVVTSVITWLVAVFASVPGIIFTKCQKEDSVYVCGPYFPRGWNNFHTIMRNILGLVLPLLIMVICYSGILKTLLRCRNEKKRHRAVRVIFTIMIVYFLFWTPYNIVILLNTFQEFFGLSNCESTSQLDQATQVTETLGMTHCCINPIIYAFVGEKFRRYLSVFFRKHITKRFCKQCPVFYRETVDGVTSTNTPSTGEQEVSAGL
Test: Calcium mobilization assay (CHOK1-CCR2B-A5 cells, FLIPR, MCP-1 stimulated)
Type: cell-based
Conditions: Ca mobilisation assay for CCR2, antagonist activity, 50% inhibition of specific calcium increases after 20 nM MCP-1
Experimental: CHOK1-CCR2B-A5 cells (from Euroscreen) stably overexpressing the human chemokine receptor 2 isoform B were cultured in Nutrient Hams F12 medium supplemented with 5% FBS, 100 U/ml penicillin, 100 μg/ml streptomycin, 400 μg/ml G418 and 5 μg/ml puromycin.
For the assay cells were grown overnight in 384-well black clear flat bottom polystyrene plates (Costar) at 37° C. at 5% CO2. After washing with DMEM, 20 mM Hepes, 2.5 mM probenecid, 0.1% BSA (DMEM assay buffer) cells were loaded with 4 μM Fluo-4 in the same DMEM assay buffer for 2 hours at 30° C. Excess dye was removed and cells were washed with DMEM assay buffer. 384-well compound plates were prepared with DMEM assay buffer/0.5% DMSO with or without various concentrations of test compounds. Usually compounds were tested for agonist and antagonist activity.
Test compounds were added to the assay plate and agonist activity was monitored as fluorescence for 80 seconds with a FLIPR (488 nm excitation; 510-570 nm emission; Molecular Devices). After 20-30 min. of incubation at 30° C., 20 nM MCP-1 (R&D; Roche) was added and fluorescence was monitored again for 80 seconds. Increases in intracellular calcium are reported as maximum fluorescence after agonist exposure minus basal fluorescence before exposure. Antagonist activity is indicated as inhibitor concentration required for 50% inhibition of specific calcium increases.

IC50 [nM] | Compound
8.8 | C[C@H]1C(=O)N2[C@H](CCN3CCC4(CC4)[C@H](O)C3)CCC[C@@H]2CN1C(=O)Nc1ccc(Cl)c(Cl)c1 (racemic) [Example 38, (3S,9aR)-6-[2-((S)-4-Hydroxy-6-aza-spiro[2.5]oct-6-yl)-ethyl]-3-methyl-4-oxo-octahydro-pyrido[1,2-a]pyrazine-2-carboxylic acid (3,4-dichloro-phenyl)-amide]
5.8 | C[C@H]1C(=O)N2[C@@H](CCN3CCC4(CC4)[C@H](O)C3)CO[C@H]2CN1C(=O)Nc1ccc(Cl)c(Cl)c1 [Example 1, (3S,6S,8aS)-3-[2-((S)-4-Hydroxy-6-aza-spiro[2.5]oct-6-yl)-ethyl]-6-methyl-5-oxo-hexahydro-oxazolo[3,2-a]pyrazine-7-carboxylic acid (3,4-dichloro-phenyl)-amide]
2.2 | C[C@H]1C(=O)N2[C@@H](CCN3CCC4(CC4)[C@H](O)C3)CO[C@@H]2CN1C(=O)Nc1ccc(Cl)c(Cl)c1 [Example 2, (3S,6S,8aR)-3-[2-((S)-4-hydroxy-6-aza-spiro[2.5]oct-6-yl)-ethyl]-6-methyl-5-oxo-hexahydro-oxazolo[3,2-a]pyrazine-7-carboxylic acid (3,4-dichloro-phenyl)-amide]
60.4 | C[C@H]1C(=O)N2C(CN1C(=O)Nc1cccc(Cl)c1)OC[C@@H]2CCN1CCC2(CC2)[C@H](O)C1 (stereo partly drawn) [Example 3, (3S,6S)-3-[2-((S)-4-Hydroxy-6-aza-spiro[2.5]oct-6-yl)-ethyl]-6-methyl-5-oxo-hexahydro-oxazolo[3,2-a]pyrazine-7-carboxylic acid (3-chloro-phenyl)-amide]
16 | C[C@H]1C(=O)N2C(CN1C(=O)Nc1ccc(F)c(Cl)c1)OC[C@@H]2CCN1CCC2(CC2)[C@H](O)C1 (stereo partly drawn) [Example 4, (3S,6S)-3-[2-((S)-4-Hydroxy-6-aza-spiro[2.5]oct-6-yl)-ethyl]-6-methyl-5-oxo-hexahydro-oxazolo[3,2-a]pyrazine-7-carboxylic acid (3-chloro-4-fluoro-phenyl)-amide]
67.9 | C[C@H]1C(=O)N2C(CN1C(=O)Nc1cccc(C(F)(F)F)c1)OC[C@@H]2CCN1CCC2(CC2)[C@H](O)C1 (stereo partly drawn) [Example 5, (3S,6S)-3-[2-((S)-4-Hydroxy-6-aza-spiro[2.5]oct-6-yl)-ethyl]-6-methyl-5-oxo-hexahydro-oxazolo[3,2-a]pyrazine-7-carboxylic acid (3-trifluoromethyl-phenyl)-amide]
72 | C[C@H]1C(=O)N2[C@@H](CCN3CCC4(CC4)[C@H](O)C3)CO[C@H]2CN1C(=O)Nc1ccc(F)c(Cl)c1 [Example 6, (3S,6S,8aS)-3-[2-((S)-4-Hydroxy-6-aza-spiro[2.5]oct-6-yl)-ethyl]-6-methyl-5-oxo-hexahydro-oxazolo[3,2-a]pyrazine-7-carboxylic acid (3-chloro-4-fluoro-phenyl)-amide]
25 | C[C@H]1C(=O)N2[C@@H](CCN3CCC4(CC4)[C@H](O)C3)CO[C@@H]2CN1C(=O)Nc1ccc(F)c(Cl)c1 [Example 7, (3S,6S,8aR)-3-[2-((S)-4-hydroxy-6-aza-spiro[2.5]oct-6-yl)-ethyl]-6-methyl-5-oxo-hexahydro-oxazolo[3,2-a]pyrazine-7-carboxylic acid (3-chloro-4-fluoro-phenyl)-amide]
146 | C[C@H]1C(=O)N2[C@@H](CCN3CCC4(CC4)[C@H](O)C3)CO[C@H]2CN1C(=O)Nc1cccc(C(F)(F)F)c1 [Example 8, (3S,6S,8aS)-3-[2-((S)-4-Hydroxy-6-aza-spiro[2.5]oct-6-yl)-ethyl]-6-methyl-5-oxo-hexahydro-oxazolo[3,2-a]pyrazine-7-carboxylic acid (3-trifluoromethyl-phenyl)-amide]
68.9 | C[C@H]1C(=O)N2[C@@H](CCN3CCC4(CC4)[C@H](O)C3)CO[C@@H]2CN1C(=O)Nc1cccc(C(F)(F)F)c1 [Example 9, (3S,6S,8aR)-3-[2-((S)-4-hydroxy-6-aza-spiro[2.5]oct-6-yl)-ethyl]-6-methyl-5-oxo-hexahydro-oxazolo[3,2-a]pyrazine-7-carboxylic acid (3-trifluoromethyl-phenyl)-amide]
12 | C[C@H]1C(=O)N2[C@@H](CCCN3CCC4(CC4)[C@H](O)C3)COC2(C)CN1C(=O)Nc1ccc(Cl)c(Cl)c1 (stereo partly drawn) [Example 12, (3S,6S)-3-[3-((S)-4-Hydroxy-6-aza-spiro[2.5]oct-6-yl)-propyl]-6,8a-dimethyl-5-oxo-hexahydro-oxazolo[3,2-a]pyrazine-7-carboxylic acid (3,4-dichloro-phenyl)-amide]
12.7 | C[C@H]1C(=O)N2[C@@H](CCCN3CCC4(CC4)[C@H](O)C3)COC2(C)CN1C(=O)Nc1ccc(C(F)(F)F)c(Cl)c1 (stereo partly drawn) [Example 13, (3S,6S)-3-[3-((S)-4-Hydroxy-6-aza-spiro[2.5]oct-6-yl)-propyl]-6,8a-dimethyl-5-oxo-hexahydro-oxazolo[3,2-a]pyrazine-7-carboxylic acid (3-chloro-4-trifluoromethyl-phenyl)-amide]
11.1 | C[C@H]1C(=O)N2[C@@H](CCN3CCC4(CC4)[C@H](O)C3)CO[C@]2(C)CN1C(=O)Nc1ccc(Cl)c(Cl)c1 [Example 14, (3S,6S,8aR)-3-[2-((S)-4-Hydroxy-6-aza-spiro[2.5]oct-6-yl)-ethyl]-6,8a-dimethyl-5-oxo-hexahydro-oxazolo[3,2-a]pyrazine-7-carboxylic acid (3,4-dichloro-phenyl)-amide]
32.8 | C[C@H]1C(=O)N2C(CN1C(=O)Nc1cccc(Cl)c1)OC[C@@H]2CCCN1CCC2(CC2)[C@H](O)C1 (stereo partly drawn) [Example 15, (3S,6S)-3-[3-((S)-4-Hydroxy-6-aza-spiro[2.5]oct-6-yl)-propyl]-6-methyl-5-oxo-hexahydro-oxazolo[3,2-a]pyrazine-7-carboxylic acid (3-chloro-phenyl)-amide]
7.4 | C[C@H]1C(=O)N2C(CN1C(=O)Nc1ccc(Cl)c(Cl)c1)OC[C@@H]2CCCN1CCC2(CC2)[C@H](O)C1 (stereo partly drawn) [Example 16, (3S,6S)-3-[3-((S)-4-Hydroxy-6-aza-spiro[2.5]oct-6-yl)-propyl]-6-methyl-5-oxo-hexahydro-oxazolo[3,2-a]pyrazine-7-carboxylic acid (3,4-dichloro-phenyl)-amide]
2.9 | C[C@H]1C(=O)N2[C@@H](CCCN3CCC4(CC4)[C@H](O)C3)CO[C@H]2CN1C(=O)Nc1ccc(Cl)c(Cl)c1 [Example 17, (3S,6S,8aS)-3-[3-((S)-4-Hydroxy-6-aza-spiro[2.5]oct-6-yl)-propyl]-6-methyl-5-oxo-hexahydro-oxazolo[3,2-a]pyrazine-7-carboxylic acid (3,4-dichloro-phenyl)-amide]
10.2 | C[C@H]1C(=O)N2[C@@H](CCCN3CCC4(CC4)[C@H](O)C3)CO[C@@H]2CN1C(=O)Nc1ccc(Cl)c(Cl)c1 [Example 18, (3S,6S,8aR)-3-[3-((S)-4-hydroxy-6-aza-spiro[2.5]oct-6-yl)-propyl]-6-methyl-5-oxo-hexahydro-oxazolo[3,2-a]pyrazine-7-carboxylic acid (3,4-dichloro-phenyl)-amide]
33.4 | C[C@H]1C(=O)N2[C@@H](CCCN3CCC4(CC4)[C@H](O)C3)CO[C@H]2CN1C(=O)Nc1cccc(Cl)c1 [Example 19, (3S,6S,8aS)-3-[3-((S)-4-Hydroxy-6-aza-spiro[2.5]oct-6-yl)-propyl]-6-methyl-5-oxo-hexahydro-oxazolo[3,2-a]pyrazine-7-carboxylic acid (3-chloro-phenyl)-amide]
177 | C[C@H]1C(=O)N2[C@@H](CCCN3CCC4(CC4)[C@H](O)C3)CO[C@@H]2CN1C(=O)Nc1cccc(Cl)c1 [Example 20, (3S,6S,8aR)-3-[3-((S)-4-hydroxy-6-aza-spiro[2.5]oct-6-yl)-propyl]-6-methyl-5-oxo-hexahydro-oxazolo[3,2-a]pyrazine-7-carboxylic acid (3-chloro-phenyl)-amide]
3.8 | C[C@H]1C(=O)N2[C@@H](CCCN3CCC4(CC4)[C@H](O)C3)CO[C@@]2(C)CN1C(=O)Nc1ccc(Cl)c(Cl)c1 [Example 21, (3S,6S,8aS)-3-[3-((S)-4-Hydroxy-6-aza-spiro[2.5]oct-6-yl)-propyl]-6,8a-dimethyl-5-oxo-hexahydro-oxazolo[3,2-a]pyrazine-7-carboxylic acid (3,4-dichloro-phenyl)-amide]
27.4 | C[C@H]1C(=O)N2[C@@H](CCCN3CCC4(CC4)[C@H](O)C3)CO[C@]2(C)CN1C(=O)Nc1ccc(Cl)c(Cl)c1 [Example 22, (3S,6S,8aR)-3-[3-((S)-4-hydroxy-6-aza-spiro[2.5]oct-6-yl)-propyl]-6,8a-dimethyl-5-oxo-hexahydro-oxazolo[3,2-a]pyrazine-7-carboxylic acid (3,4-dichloro-phenyl)-amide]
